Laboratory results as given in patent US7473790B2 (Pfizer Inc., priority 2003, dated 2009).
pIC50: −log10 of the molar value.

What follows are molecules tested against T1, HCV polymerase (Hepatitis C virus genotype 1b, UniProt P26663) (assay: HCV polymerase primer/template-directed transcription assay (32P-GTP incorporation, filter binding)). Conditions: recombinant HCV polymerase; 30 minutes at 30° C.; concentration giving 50% inhibition of polymerase-directed transcription; read-out: IC50.
T1 construct: 2.5 pmoles (0.15 μg) HCV polymerase protein in a final volume of 75 μL
T1 sequence (P26663 2420-3010): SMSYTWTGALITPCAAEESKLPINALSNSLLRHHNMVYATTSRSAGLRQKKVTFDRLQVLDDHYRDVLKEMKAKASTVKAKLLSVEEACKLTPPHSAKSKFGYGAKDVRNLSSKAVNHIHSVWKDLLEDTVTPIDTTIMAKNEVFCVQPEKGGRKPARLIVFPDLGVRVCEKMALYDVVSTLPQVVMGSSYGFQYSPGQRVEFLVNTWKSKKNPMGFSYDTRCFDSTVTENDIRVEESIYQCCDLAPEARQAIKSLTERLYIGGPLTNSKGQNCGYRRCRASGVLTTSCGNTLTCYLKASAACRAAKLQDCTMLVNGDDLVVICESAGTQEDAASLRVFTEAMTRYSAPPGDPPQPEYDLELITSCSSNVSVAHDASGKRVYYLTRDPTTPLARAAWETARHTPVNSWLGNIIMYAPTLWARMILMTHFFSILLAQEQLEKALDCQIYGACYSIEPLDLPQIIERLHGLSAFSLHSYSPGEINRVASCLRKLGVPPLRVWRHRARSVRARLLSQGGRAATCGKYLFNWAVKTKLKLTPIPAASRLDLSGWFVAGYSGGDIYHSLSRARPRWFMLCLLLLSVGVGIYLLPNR
Assay type: biochemical
Method: The compounds described herein were tested for activity with HCV polymerase. Recombinant HCV polymerase was tested for its ability to perform primer/template-directed transcription in assays that contained 30 mM tris-HCl pH 7.2, 10 mM MgCl2, 20 mM NaCl, 1 mM Dithiothreitol (DTT), 0.05% Tween-20, 1% glycerol, 5 pmoles biotin-dG12 (primer), 0.5 pmoles poly(rC)300 (template), 1 μM GTP, 0.1-0.3 uCi α-^32P-GTP, and 2.5 pmoles (0.15 μg) HCV polymerase protein in a final volume of 75 μL. Reactions were initiated by addition of enzyme and incubated 30 minutes at 30° C. Reactions were stopped by addition of 33 mM EDTA, and polynucleotide products were collected by filtration through Diethylaminoethyl (DE) Filtermat papers (Wallac). Unincorporated triphosphate was removed by washing the filters with 5% dibasic sodium phosphate. The filters were counted in a Packard Tri-Lux Microbeta scintillation counter (Packard Bioscience, Meriden, Conn.). Compounds to be tested were added at various concentrations, e.g., 1 μm to 50 μm, from stocks in 10% DMSO-water (final DMSO is 1% in reaction).
IC50 values were estimated from the primary cpm data (collected in triplicate) using the formula: cpm (I)=cpm(no inhibitor)(1−([I]/([I]+IC50))). An IC50 value represents the concentration (in μM) of a compound that provides 50% inhibition of polymerase-directed transcription in the above assay. A percent inhibition value is expressed for a compound where it was impractical to calculate an IC50 value with available data. If the IC50 estimated by the above equation was less than 200 nM, it was recalculated using the following equation, which takes into account the enzyme concentration (30 nM) in the assay: cpm(I)=cpm(no inhibitor)(1−((((I+IC50+30e−9)−sqrt(((I+IC50+30e−9)^2)−4×30e−9×I)))/((2)(30e−9))). Curve fitting was performed using the program KaleidaGraph (Synergy Software, Reading, Pa.).
Work on `CC(C)Oc1ccc(CCC2(C3CCCC3)CC(=O)CC(=O)O2)cc1F` (single isomer, unassigned) [J(2), 6-cyclopentyl-6-[2-(3-fluoro-4-isopropoxyphenyl)ethyl]dihydro-2H-pyran-2,4(3H)-dione] yielded a pIC50 of 5.41.
`Cc1cc(C)n2nc(CC3=C(O)CC(CCc4ccc(OC(C)C)c(F)c4)(C4CCCC4)OC3=O)nc2n1` (single isomer, unassigned) [J(3), 6-cyclopentyl-3-[(5,7-dimethyl[1,2,4]triazolo[1,5-a]pyrimidin-2-yl)methyl]-6-[2-(3-fluoro-4-isopropoxyphenyl)ethyl]-4-hydroxy-5,6-dihydro-2H-pyran-2-one] was tested, and the pIC50 was 8.30.
`Cc1cc(C)n2nc(CC3=C(O)CC(CCc4ccc(OC(C)C)c(F)c4)(C4CCCC4)OC3=O)nc2n1` (single isomer, unassigned) [J(4), 6-cyclopentyl-3-[(5,7-dimethyl[1,2,4]triazolo[1,5-a]pyrimidin-2-yl)methyl]-6-[2-(3-fluoro-4-isopropoxyphenyl)ethyl]-4-hydroxy-5,6-dihydro-2H-pyran-2-one] was tested, and the pIC50 was 7.72.
In the case of `CCc1cccc(CCC2(C3CCCC3)CC(=O)CC(=O)O2)c1` (single isomer, unassigned) [J(5), 6-Cyclopentyl-6-[2-(3-ethyl-phenyl)-ethyl]-dihydro-pyran-2,4-dione], the pIC50 was 5.72.
`CCc1cccc(CCC2(C3CCCC3)CC(=O)CC(=O)O2)c1` (single isomer, unassigned) [J(6), 6-Cyclopentyl-6-[2-(3-ethyl-phenyl)-ethyl]-dihydro-pyran-2,4-dione] gave a pIC50 of 5.92.
Work on `CCc1cccc(CCC2(C3CCCC3)CC(O)=C(Cc3nc4nc(C)cc(C)n4n3)C(=O)O2)c1` (single isomer, unassigned) [J(7), 6-Cyclopentyl-3-(5,7-dimethyl-[1,2,4]triazolo[1,5-a]pyrimidin-2-ylmethyl)-6-[2-(3-ethyl-phenyl)-ethyl]-4-hydroxy-5,6-dihydro-pyran-2-one] yielded a pIC50 of 8.00.
`CCc1cccc(CCC2(C3CCCC3)CC(O)=C(Cc3nc4nc(C)cc(C)n4n3)C(=O)O2)c1` (single isomer, unassigned) [J(8), 6-Cyclopentyl-3-(5,7-dimethyl-[1,2,4]triazolo[1,5-a]pyrimidin-2-ylmethyl)-6-[2-(3-ethyl-phenyl)-ethyl]-4-hydroxy-5,6-dihydro-pyran-2-one] was tested, and the pIC50 was 7.85.
Molecule `Cc1cnc2nc(CC3C(=O)CC(CCc4ccc(C(C)(C)C#N)c(F)c4)(C4CCCC4)OC3=O)nn2c1` (single isomer, unassigned; (+)) [A(109), (+)-2-(4-{2-[2-Cyclopentyl-5-(6-methyl-[1,2,4]triazolo[1,5-a]pyrimidin-2-ylmethyl)-4,6-dioxo-tetrahydro-pyran-2-yl]-ethyl}-2-fluoro-phenyl)-2-methyl-propionitrile] has a pIC50 of 8.40.
Work on `CC(C)(C#N)c1ccc(CCC2(C3CCCC3)CC(O)=C(Cc3nc4ncc(Cl)cn4n3)C(=O)O2)cc1F` (single isomer, unassigned; (+)) [A(248), (+)-2-(4-{2-[5-(6-Chloro-[1,2,4]triazolo[1,5-a]pyrimidin-2-ylmethyl)-2-cyclopentyl-4,6-dioxo-tetrahydro-pyran-2-yl]-ethyl}-2-fluoro-phenyl)-2-methyl-propionitrile] yielded a pIC50 of 7.80.
In the case of `CC(C)(C#N)c1c(F)cc(CCC2(C3CCCC3)CC(O)=C(Cc3nc4ncc(Cl)cn4n3)C(=O)O2)cc1F` (single isomer, unassigned; (+)) [A(259), (+)-2-(4-{2-[5-(6-Chloro-[1,2,4]triazolo[1,5-a]pyrimidin-2-ylmethyl)-2-cyclopentyl-4-hydroxy-6-oxo-3,6-dihydro-2H-pyran-2-yl]-ethyl}-2,6-difluoro-phenyl)-2-methyl-propionitrile], the pIC50 was 8.22.
With `CCC(C#N)(CC)c1c(F)cc(CCC2(C3CCCC3)CC(O)=C(Cc3nc4ncc(C)cn4n3)C(=O)O2)cc1F` (single isomer, unassigned; (+)) [A(263), (+)-2-(4-{2-[2-Cyclopentyl-4-hydroxy-5-(6-methyl-[1,2,4]triazolo[1,5-a]pyrimidin-2-ylmethyl)-6-oxo-3,6-dihydro-2H-pyran-2-yl]-ethyl}-2,6-difluoro-phenyl)-2-ethyl-butyronitrile] the pIC50 was 8.15.
`CCC(C#N)(CC)c1ccc(CCC2(C3CCCC3)CC(O)=C(Cc3nc4ncc(Cl)cn4n3)C(=O)O2)cc1F` (single isomer, unassigned; (+)) [A(266), (+)-2-(4-{2-[5-(6-Chloro-[1,2,4]triazolo[1,5-a]pyrimidin-2-ylmethyl)-2-cyclopentyl-4-hydroxy-6-oxo-3,6-dihydro-2H-pyran-2-yl]-ethyl}-2-fluoro-phenyl)-2-ethyl-butyronitrile] showed a pIC50 of 7.72.
`Cc1cnc2nc(CC3C(=O)CC(CCc4ccc(C(C)(C)C#N)c(F)c4)(C4CCCC4)OC3=O)nn2c1` (single isomer, unassigned; (-)) [A(110), (−)-2-(4-{2-[2-Cyclopentyl-5-(6-methyl-[1,2,4]triazolo[1,5-a]pyrimidin-2-ylmethyl)-4,6-dioxo-tetrahydro-pyran-2-yl]-ethyl}-2-fluoro-phenyl)-2-methyl-propionitrile] gave a pIC50 of 9.00.
`CCc1cc(CCC2(C3CCCC3)CC(O)=C(Cc3nc4nc(C)cc(C)n4n3)C(=O)O2)c(OC)cc1O` (single isomer, unassigned; (-)) [A(155), (−)-6-Cyclopentyl-3-(5,7-dimethyl-[1,2,4]triazolo[1,5-a]pyrimidin-2-ylmethyl)-6-[2-(5-ethyl-4-hydroxy-2-methoxy-phenyl)-ethyl]-4-hydroxy-5,6-dihydro-pyran-2-one] gave a pIC50 of 8.52.
In the case of `CC(C)(C#N)c1ccc(CCC2(C3CCCC3)CC(O)=C(Cc3nc4ncc(Cl)cn4n3)C(=O)O2)cc1F` (single isomer, unassigned; (-)) [A(249), (−)-2-(4-{2-[5-(6-Chloro-[1,2,4]triazolo[1,5-a]pyrimidin-2-ylmethyl)-2-cyclopentyl-4,6-dioxo-tetrahydro-pyran-2-yl]-ethyl}-2-fluoro-phenyl)-2-methyl-propionitrile], the pIC50 was 7.72.
In the case of `Cc1cnc2nc(CC3=C(O)CC(CCc4cc(F)c(C(C)(C)C#N)c(F)c4)(C4CCCC4)OC3=O)nn2c1` (single isomer, unassigned; (-)) [A(258), (−)-2-(4-{2-[2-Cyclopentyl-4-hydroxy-5-(6-methyl-[1,2,4]triazolo[1,5-a]pyrimidin-2-ylmethyl)-6-oxo-3,6-dihydro-2H-pyran-2-yl]-ethyl}-2,6-difluoro-phenyl)-2-methyl-propionitrile], the pIC50 was 8.70.
With `CC(C)(C#N)c1c(F)cc(CCC2(C3CCCC3)CC(O)=C(Cc3nc4ncc(Cl)cn4n3)C(=O)O2)cc1F` (single isomer, unassigned; (-)) [A(260), (−)-2-(4-{2-[5-(6-Chloro-[1,2,4]triazolo[1,5-a]pyrimidin-2-ylmethyl)-2-cyclopentyl-4-hydroxy-6-oxo-3,6-dihydro-2H-pyran-2-yl]-ethyl}-2,6-difluoro-phenyl)-2-methyl-propionitrile] the pIC50 was 8.15.
In the case of `CCC(C#N)(CC)c1c(F)cc(CCC2(C3CCCC3)CC(O)=C(Cc3nc4ncc(C)cn4n3)C(=O)O2)cc1F` (single isomer, unassigned; (-)) [A(264), (−)-2-(4-{2-[2-Cyclopentyl-4-hydroxy-5-(6-methyl-[1,2,4]triazolo[1,5-a]pyrimidin-2-ylmethyl)-6-oxo-3,6-dihydro-2H-pyran-2-yl]-ethyl}-2,6-difluoro-phenyl)-2-ethyl-butyronitrile], the pIC50 was 8.40.
In the case of `CCC(C#N)(CC)c1ccc(CCC2(C3CCCC3)CC(O)=C(Cc3nc4ncc(Cl)cn4n3)C(=O)O2)cc1F` (single isomer, unassigned; (-)) [A(267), (−)-2-(4-{2-[5-(6-Chloro-[1,2,4]triazolo[1,5-a]pyrimidin-2-ylmethyl)-2-cyclopentyl-4-hydroxy-6-oxo-3,6-dihydro-2H-pyran-2-yl]-ethyl}-2-fluoro-phenyl)-2-ethyl-butyronitrile], the pIC50 was 8.40.
`CCc1ccc(O)c(CCC2(C3CCCC3)CC(O)=C(Cc3nc4nc(C)cc(C)n4n3)C(=O)O2)c1` (single isomer, unassigned; enantiomer 1) [A(167), Enantiomer 1 of 6-Cyclopentyl-3-(5,7-dimethyl-[1,2,4]triazolo[1,5-a]pyrimidin-2-ylmethyl)-6-[2-(5-ethyl-2-hydroxy-phenyl)-ethyl]-4-hydroxy-5,6-dihydro-pyran-2-one] gave a pIC50 of 8.40.
With `CCc1ccc(O)c(CCC2(C3CCCC3)CC(O)=C(Cc3nc4ncc(Cl)cn4n3)C(=O)O2)c1` (single isomer, unassigned; enantiomer 1) [A(171), Enantiomer 1 of 3-(6-Chloro-[1,2,4]triazolo[1,5-a]pyrimidin-2-ylmethyl)-6-cyclopentyl-6-[2-(5-ethyl-2-hydroxy-phenyl)-ethyl]-4-hydroxy-5,6-dihydro-pyran-2-one] the pIC50 was 8.40.
